# Laboratory results published in US20190359547A1, “METHOD OF RETARDING AN ETHYLENE RESPONSE” (CURTIN UNIVERSITY OF TECHNOLOGY, priority 2016, published 2019).
# What was measured:
# [1] = test system: 'Tegan Blue' Japanese plum fruit; experiment: climacteric ethylene level in 'Tegan Blue' plum fruit after fumigation; type: in vivo; settings: for level of climacteric ethylene, suppressed, in comparison to the solely ethylene treated fruit: 'Tegan Blue' plum, ethylene only 4.73 μmol kg^-1 h^-1
# [2] = test system: 'Arctic Pride' nectarine fruit; experiment: climacteric ethylene level in 'Arctic Pride' nectarine fruit after fumigation; type: in vivo; settings: BC 50 nLL^-1 + ethylene, ethylene only 0.414 μmol kg^-1 h^-1
# [3] = test system: 'Tegan Blue' Japanese plum fruit; experiment: climacteric respiration (CO2 production) in 'Tegan Blue' plum fruit; type: in vivo; settings: ethylene only 0.72 mmol CO2 kg^-1 h^-1
# [4] = stability at room temperature; type: physicochemical
# [5] = test system: WX73 wax flower; experiment: flower/bud abscission in WX73 wax flower; type: in vivo, Wax flower (Chamelaucium Desf.)
# Description: (§1) To evaluate the effects of BC and NC on flower abscission, flowering stems of Wax flower (Chamelaucium Desf.) (WX17, WX73 and WX107) were collected from mature bushes grown at Department of Agriculture and Food Western Australia (DAFWA), Perth (31° 58′ 55″ S/115° 51′ 47″ E). Collected stems were immediately placed upright in buckets with water and recut at 20-25 cm in length (from the cut end to the most extreme opened-flowers). The flower stalks were treated similarly as the fruits with BC (0-100 nLL^−1) or NC (0-100 nLL^−1) and ethylene. The experiments were laid out by following CRD design, having five replications for each treatment and five stalks in each replication. During the treatment period, the flower stalks were placed in small plastic bottles with distilled water. A cone made of nylon mesh was placed at the base of the stalks to check the number of abscised flowers. […]
# (§2) The experimental data were analysed following one-way analysis of variance (ANOVA) by using Genstat 13 (release 13.1; Lawes Agricultural Trust, Rothamsted Experimental Station, Harpenden, UK). The effects of various treatments and their interactions were assessed and least significant differences (Fisher's LSD) were calculated by F test at 5% level of significance.
# [6] = solubility in water; type: physicochemical
# [7] = test system: WX17 wax flower; experiment: flower/bud abscission in WX17 wax flower; type: in vivo, Wax flower (Chamelaucium Desf.); settings: BC 100 nLL^-1 fumigation followed by ethylene exposure (10 μLL^-1)
# Description: as §1, §2
# [8] = test system: 'Arctic Pride' nectarine fruit; experiment: climacteric respiration (CO2 production) in 'Arctic Pride' nectarine fruit; type: in vivo; settings: ethylene only 0.31 mmol CO2 kg^-1 h^-1
solubility in water [6],SMILES,"level of climacteric ethylene, suppressed, in comparison to the solely ethylene treated fruit ([1]; 100 nLL^-1 BC fumigation 18 hr + ethylene (10 μL L^-1, 24 hr)) [fold]","effect on climacteric ethylene and respiration compared with 1-MCP (1000 nL L^-1) ([1]; BC 100 nL L^-1 versus 1-MCP 1000 nL L^-1, 'Tegan Blue' and 'Fortune' plum, 'Arctic Pride' nectarine)","levels of ethylene, suppressed, than the solely ethylene treated fruit [2] [fold]","climacteric respiration, suppressed, than the solely ethylene treated fruit ([3]; BC 100 nLL^-1 + ethylene) [fold]",stability [4],rate of flower/bud abscission ([5]; 50 nL L^-1 BC followed by ethylene treatment) [%],rate of flower/bud abscission ([5]; 100 nL L^-1 BC followed by ethylene treatment) [%],rate of flower/bud abscission [7] [%],suppression of respiration climacteric in comparison to the solely ethylene treated fruit ([8]; BC 50 nLL^-1 + ethylene) [fold],suppression of respiration climacteric in comparison to the solely ethylene treated fruit ([8]; BC 50 nLL^-1 without ethylene) [fold],"level of climacteric ethylene, suppressed, in comparison to the solely ethylene treated fruit ([1]; 1000 nLL^-1 1-MCP fumigation 18 hr + ethylene (10 μL L^-1, 24 hr)) [fold]","climacteric respiration, suppressed, than the solely ethylene treated fruit ([3]; 1-MCP 1000 μLL^-1 + ethylene) [fold]"
only partially soluble in water,"c1ccc2c(c1)C2 [BC, benzocyclopropene]",0.80,non-significant differences,0.63,0.83,stable at room temperature for several months,22.43,28.40,6.05,0.77,0.71,,
,"CC1=CC1 [1-MCP, 1-Methylcyclopropene, reference compound]",,,,,,,,,,,0.70,0.77
